Values quoted from earlier work as cited in paper PMC8513935.
Blank lines part the entries; values can stand above or below the compound they belong to.

Key:
[1] = log P octanol/water from commercial databases, averaged (the ESI); conditions: Octanol (wet), 25 C
[2] = experimental, compiled by the authors from the literature (the ESI cites the sources)
[3] = derived by the authors as gas->solvent minus gas->water (a hypothetical dry solvent; the ESI), not a two-phase measurement

log K of transfer, water to solvent [1]: 4.56 log10 K
log K of transfer, gas to solvent ([2]; 1,2-Dichloroethane, 25 C): 3.57 log10 K
log K of transfer, gas to solvent ([2]; Acetonitrile, 25 C): 2.87 log10 K
log K of transfer, gas to solvent ([2]; Butan-1-ol, 25 C): 3.44 log10 K
log K of transfer, gas to solvent ([2]; Butanone, 25 C): 3.53 log10 K
log K of transfer, gas to solvent ([2]; Butyronitrile, 25 C): 3.35 log10 K
log K of transfer, gas to solvent ([2]; CCl4, 25 C): 4.08 log10 K
log K of transfer, gas to solvent ([2]; Chlorobenzene, 25 C): 4.06 log10 K
log K of transfer, gas to solvent ([2]; Chloroform, 25 C): 3.99 log10 K
log K of transfer, gas to solvent ([2]; Cyclohexanone, 25 C): 3.55 log10 K
log K of transfer, gas to solvent ([2]; Dichloromethane, 25 C): 3.82 log10 K
log K of transfer, gas to solvent ([2]; Ethanol, 25 C): 3.27 log10 K
log K of transfer, gas to solvent ([2]; Hexadecane, 25 C): 3.88 log10 K
log K of transfer, gas to solvent ([2]; Hexane, 25 C): 3.97 log10 K
log K of transfer, gas to solvent ([2]; Methanol, 25 C): 2.96 log10 K
log K of transfer, gas to solvent ([2]; Perfluoroalkane, 25 C): 2.56 log10 K
log K of transfer, gas to solvent ([2]; Propan-1-ol, 25 C): 3.28 log10 K
log K of transfer, gas to solvent ([2]; Propan-2-ol, 25 C): 3.27 log10 K
log K of transfer, gas to solvent ([2]; Propanone, 25 C): 3.32 log10 K
log K of transfer, gas to solvent ([2]; Propionitrile, 25 C): 3.17 log10 K
log K of transfer, gas to solvent ([2]; Tetrahydrofuran, 25 C): 3.92 log10 K
log K of transfer, gas to solvent ([2]; Water, 25 C): -1.58 log10 K
log K of transfer, water to solvent ([3]; 1,2-Dichloroethane, 25 C): 5.15 log10 K
log K of transfer, water to solvent ([3]; Acetone, 25 C): 4.9 log10 K
log K of transfer, water to solvent ([3]; Acetonitrile, 25 C): 4.45 log10 K
log K of transfer, water to solvent ([3]; Butan-1-ol, 25 C): 5.02 log10 K
log K of transfer, water to solvent ([3]; Butanone, 25 C): 5.11 log10 K
log K of transfer, water to solvent ([3]; Butyronitrile, 25 C): 4.93 log10 K
log K of transfer, water to solvent ([3]; CCl4, 25 C): 5.66 log10 K
log K of transfer, water to solvent ([3]; Chlorobenzene, 25 C): 5.64 log10 K
log K of transfer, water to solvent ([3]; Chloroform, 25 C): 5.57 log10 K
log K of transfer, water to solvent ([3]; Cyclohexanone, 25 C): 5.13 log10 K
log K of transfer, water to solvent ([3]; Dichloromethane, 25 C): 5.4 log10 K
log K of transfer, water to solvent ([3]; Ethanol, 25 C): 4.84 log10 K
log K of transfer, water to solvent ([3]; Hexadecane, 25 C): 5.45 log10 K
log K of transfer, water to solvent ([3]; Hexane, 25 C): 5.55 log10 K
log K of transfer, water to solvent ([3]; Methanol, 25 C): 4.54 log10 K
log K of transfer, water to solvent ([3]; Perfluoroalkane, 25 C): 4.14 log10 K
log K of transfer, water to solvent ([3]; Propan-1-ol, 25 C): 4.86 log10 K
log K of transfer, water to solvent ([3]; Propan-2-ol, 25 C): 4.85 log10 K
log K of transfer, water to solvent ([3]; Propionitrile, 25 C): 4.75 log10 K
log K of transfer, water to solvent ([3]; Tetrahydrofuran, 25 C): 5.5 log10 K
SMILES: CCC1CCCCC1

log K of transfer, water to solvent [1]: 4.18 log10 K
log K of transfer, gas to solvent ([2]; 2-Methylpropan-1-ol, 25 C): 6.75 log10 K
log K of transfer, gas to solvent ([2]; 2-Methylpropan-2-ol, 25 C): 6.48 log10 K
log K of transfer, gas to solvent ([2]; 3-Methylbutan-1-ol, 25 C): 6.56 log10 K
log K of transfer, gas to solvent ([2]; Acetonitrile, 25 C): 7.12 log10 K
log K of transfer, gas to solvent ([2]; Butan-1-ol, 25 C): 6.71 log10 K
log K of transfer, gas to solvent ([2]; Butan-2-ol, 25 C): 6.56 log10 K
log K of transfer, gas to solvent ([2]; Decan-1-ol, 25 C): 6.84 log10 K
log K of transfer, gas to solvent ([2]; Ethanol, 25 C): 6.54 log10 K
log K of transfer, gas to solvent ([2]; Heptan-1-ol, 25 C): 6.84 log10 K
log K of transfer, gas to solvent ([2]; Hexadecane, 25 C): 6.92 log10 K
log K of transfer, gas to solvent ([2]; Hexan-1-ol, 25 C): 6.79 log10 K
log K of transfer, gas to solvent ([2]; Hexane, 25 C): 6.81 log10 K
log K of transfer, gas to solvent ([2]; Methanol, 25 C): 6.48 log10 K
log K of transfer, gas to solvent ([2]; Octan-1-ol, 25 C): 6.83 log10 K
log K of transfer, gas to solvent ([2]; Pentan-1-ol, 25 C): 6.77 log10 K
log K of transfer, gas to solvent ([2]; Propan-1-ol, 25 C): 6.66 log10 K
log K of transfer, gas to solvent ([2]; Propan-2-ol, 25 C): 6.54 log10 K
log K of transfer, gas to solvent ([2]; Water, 25 C): 2.45 log10 K
log K of transfer, water to solvent ([3]; 2-Methylpropan-1-ol, 25 C): 4.3 log10 K
log K of transfer, water to solvent ([3]; 2-Methylpropan-2-ol, 25 C): 4.03 log10 K
log K of transfer, water to solvent ([3]; 3-Methylbutan-1-ol, 25 C): 4.11 log10 K
log K of transfer, water to solvent ([3]; Acetonitrile, 25 C): 4.67 log10 K
log K of transfer, water to solvent ([3]; Butan-1-ol, 25 C): 4.26 log10 K
log K of transfer, water to solvent ([3]; Butan-2-ol, 25 C): 4.11 log10 K
log K of transfer, water to solvent ([3]; Decan-1-ol, 25 C): 4.39 log10 K
log K of transfer, water to solvent ([3]; Ethanol, 25 C): 4.09 log10 K
log K of transfer, water to solvent ([3]; Heptan-1-ol, 25 C): 4.39 log10 K
log K of transfer, water to solvent ([3]; Hexadecane, 25 C): 4.47 log10 K
log K of transfer, water to solvent ([3]; Hexan-1-ol, 25 C): 4.34 log10 K
log K of transfer, water to solvent ([3]; Hexane, 25 C): 4.36 log10 K
log K of transfer, water to solvent ([3]; Methanol, 25 C): 4.03 log10 K
log K of transfer, water to solvent ([3]; Octan-1-ol(dry), 25 C): 4.38 log10 K
log K of transfer, water to solvent ([3]; Pentan-1-ol, 25 C): 4.32 log10 K
log K of transfer, water to solvent ([3]; Propan-1-ol, 25 C): 4.21 log10 K
log K of transfer, water to solvent ([3]; Propan-2-ol, 25 C): 4.09 log10 K
SMILES: c1ccc2c(c1)Cc1ccccc1-2

log K of transfer, water to solvent [1]: 2.52 log10 K
log K of transfer, gas to solvent ([2]; Hexadecane, 25 C): 3.54 log10 K
log K of transfer, gas to solvent ([2]; Water, 25 C): 0.89 log10 K
log K of transfer, water to solvent ([3]; Hexadecane, 25 C): 2.65 log10 K
SMILES: CC(C)SC(C)C
